Legend:
AGTR1 [1] = target: T1, AGTR1 (Homo sapiens, UniProt P30556); experiment: DiscoveRx β-arrestin2 recruitment assay (enzyme complementation, Pathunter CHO-K1 AGTR1 β-arrestin cell line); format: cell-based; conditions: DiscoveRx β-arrestin2 recruitment; for DiscoveRx β-arrestin2 Ymax (%): maximal response
T1 construct: host or cells: Pathunter CHO-K1 AGTR1 β-arrestin cell line (CHO-K1)
T1 sequence (P30556 1-359): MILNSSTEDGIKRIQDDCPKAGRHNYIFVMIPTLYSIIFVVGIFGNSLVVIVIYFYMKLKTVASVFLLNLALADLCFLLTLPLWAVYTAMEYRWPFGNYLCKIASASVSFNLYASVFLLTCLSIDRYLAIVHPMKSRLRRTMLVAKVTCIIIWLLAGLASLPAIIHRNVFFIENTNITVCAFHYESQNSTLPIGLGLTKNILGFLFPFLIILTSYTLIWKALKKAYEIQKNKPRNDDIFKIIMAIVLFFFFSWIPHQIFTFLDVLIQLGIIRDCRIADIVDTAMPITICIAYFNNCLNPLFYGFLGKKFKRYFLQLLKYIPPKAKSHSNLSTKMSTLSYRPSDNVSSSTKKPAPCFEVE
Outline: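 Chemiluminescent enzyme-complementation read-out of β-arrestin2 recruitment to AGTR1 in engineered CHO-K1 cells after 90 min compound exposure at 37° C. Values are 4-parameter logistic EC50s in agonist mode, IC50s in antagonist mode, with efficacy relative to the maximal All response.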

AGTR1 [2] = target: T1, AGTR1; experiment: DiscoveRx IP1 accumulation assay (HTRF), agonist mode, Pathunter CHO-K1 AGTR1 β-arrestin cell line; format: cell-based; conditions: for EC50: read-out: IP-1 EC50
Outline: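 Agonist mode in CHO-K1 AGTR1 β-arrestin cells plated 14-16 h before; compounds at varying concentrations for 90 min at 37° C, IP1 accumulation read by HTRF (D2-conjugate and anti-IP1 cryptate, 20 min room temperature). EC50 from 4-parameter logistic fit; activity given as percentage of maximal AII effect.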

hAT1R [3] = target: T2, hAT1R (Homo sapiens, UniProt P30556); experiment: BRET β-arrestin2 biosensor assay, higher receptor expression (hAT1R 5 ng/well), HEK293 cells; format: cell-based; conditions: for EC50: High AT1R Expression
T2 sequence (P30556 1-359): T1 sequence (P30556 1-359)

hAT1R [4] = target: T2, hAT1R; experiment: cell-based
hAT1R [5] = target: T2, hAT1R; experiment: cell-based; conditions: agonist mode; for EC50: read-out: BRET P63 EC50
[6] = section of the 42nd table ending at r951, example numbering restarts after the DiscoveRx section, read-out: β-arrestin2 EC50
[7] = Low AT1R Expression, read-out: BRET β-Arrestin2 Low AT1R Expression EC50

Compound	EC50 (AGTR1 [1])	DiscoveRx β-arrestin2 Ymax (%) (AGTR1 [1])	IP-1 Ymax (%) (AGTR1 [2])	EC50 (AGTR1 [2])	BRET β-Arrestin2 High AT1R Expression Ymax (%) (hAT1R [3])	EC50 (hAT1R [3])	EC50 (hAT1R [4]; [6])	BRET P63 Ymax (hAT1R [5])	EC50 (hAT1R [5])	BRET β-Arrestin2 Low AT1R Expression Ymax (%) (hAT1R [4]; Low AT1R Expression)	EC50 (hAT1R [4]; [7])
CCc1nc2c(C)cc(C)nc2n1Cc1ccc(-c2cc(Oc3cc(Cl)ccn3)ccc2-c2nn[nH]n2)cc1 [Example 251]	0.0336 µM	20.2%	10.9%	0.182 µM	57.2%	0.0106 µM	0.0082 µM	6.7%	0.0111 µM	–	–
CCCn1cc(-c2ccc(-c3nnn[nH]3)c(-c3ccc(Cn4c(CC)nc5c(C)cc(C)nc54)cc3)c2)nn1 [Example 236]	0.0125 µM	60.8%	19.2%	0.0482 µM	93.3%	0.0036 µM	0.0173 µM	36.2%	0.0346 µM	–	–
CCc1nc2c(C)cc(C)nc2n1Cc1ccc(-c2cc(Oc3cccnc3)ccc2-c2nnn[nH]2)cc1 [Example 257]	0.009 µM	34.9%	10.7%	0.0283 µM	87.3%	0.01 µM	0.0291 µM	10.8%	0.0237 µM	–	–
CCc1nc2c(C)cc(C)nc2n1Cc1ccc(-c2cc(-c3cc(F)cc(F)c3)ccc2-c2nn[nH]n2)cc1 [Example 53]	0.0026 µM	39.4%	5.8%	0.0079 µM	90.6%	0.0054 µM	–	–	> 100 µM	61.8%	0.014 µM
CCCCC1=NC2(CCCC2)C(=O)N1Cc1ccc(-c2cc(-c3ccc(C)cc3)ccc2-c2nn[nH]n2)cc1 [Example 122, 2-butyl-3-((4″-methyl-6′-(2H-tetrazol-5-yl)-[1,1′:3′,1″-terphenyl]-4-yl)methyl)-1,3-diazaspiro[4.4]non-1-en-4-one]	0.0161 µM	33.8%	5.5%	0.0354 µM	94.3%	0.0175 µM	–	–	> 10 µM	31.6%	0.0308 µM
CCc1nc2c(C)cc(C)nc2n1Cc1ccc(-c2cc(-n3cc(C(C)C)nn3)ccc2-c2nnn[nH]2)cc1 [Example 227]	0.032 µM	51.6%	9.8%	0.268 µM	87.8%	0.0074 µM	0.0314 µM	19.9%	0.0304 µM	–	–
CCc1nc2c(C)cc(C)nc2n1Cc1ccc(-c2cc(-c3ccccc3C)ccc2-c2nn[nH]n2)cc1 [Example 2]	0.0198 µM	21.8%	13.1%	0.0718 µM	74.2%	0.0113 µM	–	2.7%	0.022 µM	15.2%	0.011 µM
CCc1nc2c(C)cc(C)nc2n1Cc1ccc(-c2cc(-c3cccc(C)c3)ccc2-c2nnn[nH]2)nc1 [Example 175, 2-ethyl-5,7-dimethyl-3-((6-(3′-methyl-4-(1H-tetrazol-5-yl)biphenyl-3-yl)pyridin-3-yl)methyl)-3H-imidazo[4,5-b]pyridine]	0.006 µM	37.0%	24.1%	0.0128 µM	93.0%	0.0052 µM	0.0107 µM	12.4%	0.0211 µM	–	–
CCc1nc2c(C)cc(C)nc2n1Cc1ncc(-c2cc(-c3ccccc3)ccc2-c2nnn[nH]2)cn1 [Example 190]	0.138 µM	57.0%	17.5%	0.485 µM	88.8%	0.0836 µM	0.154 µM	16.4%	0.432 µM	–	–
CCc1nc2c(C)cc(C)nc2n1Cc1ccc(-c2cc(-c3ccc(CO)cc3)ccc2C(=O)O)cc1 [Example 183]	0.0662 µM	36.2%	14.1%	0.2 µM	90.0%	0.0629 µM	0.138 µM	13.2%	0.179 µM	–	–
CCCCC1=NC2(CCCC2)C(=O)N1Cc1ccc(-c2cc(-c3ccc(C(=O)N(C)C)cc3)ccc2-c2nn[nH]n2)cc1 [Example 133]	0.0057 µM	18.0%	–	> 100 µM	69.0%	0.0384 µM	–	–	> 10 µM	–	> 10 µM
CCc1nc2c(C)cc(C)nc2n1Cc1ccc(-c2cc(-c3ccccc3)ccc2-c2noc(=S)[nH]2)cc1 [Example 72, 3-(4″-((2-ethyl-5,7-dimethyl-3H-imidazo[4,5-b]pyridin-3-yl)methyl)-[1,1′:3′,1″-terphenyl]-4′-yl)-1,2,4-oxadiazole-5(4H)-thione]	0.0226 µM	63.6%	8.5%	0.092 µM	85.8%	0.0332 µM	–	11.8%	0.043 µM	44.4%	0.0582 µM
CCCC1=NC2(CCCC2)C(=O)N1Cc1ccc(-c2cc(N3CCC[C@@H](C)C3)ccc2-c2nn[nH]n2)cc1 [Example 117]	0.074 µM	30.6%	–	> 100 µM	35.0%	0.0942 µM	–	–	> 100 µM	–	> 100 µM
CCc1nc2c(C)cc(C)nc2n1Cc1ccc(-c2cc(-c3ccccc3)ccc2C(=O)O)cn1 [Example 196, 3-(6-((2-ethyl-5,7-dimethyl-3H-imidazo[4,5-b]pyridin-3-yl)methyl)pyridin-3-yl)-[1,1′-biphenyl]-4-carboxylic acid]	3.02 µM	50.4%	12.1%	0.869 µM	83.3%	0.618 µM	1.7 µM	7.6%	1.1 µM	–	–
CCc1nc2c(C)cc(C)nc2n1Cc1ccc(-c2cc(-c3cccc(C)c3)ccc2-c2nnn[nH]2)cn1 [Example 177, 2-ethyl-5,7-dimethyl-3-((5-(3′-methyl-4-(1H-tetrazol-5-yl)biphenyl-3-yl)pyridin-2-yl)methyl)-3H-imidazo[4,5-b]pyridine]	0.0118 µM	52.2%	22.9%	0.113 µM	91.8%	0.004 µM	0.0115 µM	23.8%	0.0362 µM	–	–
